The molecules below were run on MRC5-hT fibroblasts expressing HCMV UL38 (glucose-free medium) (assay: rescue of cell number (AUC of dose-response) relative to untreated glucose-free control; higher = stronger protection from glucose-starvation-induced cell death). Conditions: glucose: 0 (glucose-free DMEM); 96 h; dose range 0.001-20, 10-point curve µM.
Protocol: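 MRC5-hT fibroblasts stably expressing HCMV UL38 were seeded in 384-well plates, serum-starved for 24 h, switched to glucose-free DMEM, and pin-transferred with a metabolism-focused compound library as 10-point dose curves (1 nM to 20 µM; n=2). Nuclei were counted by Hoechst imaging 96 h after glucose withdrawal.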

In order of falling “rescue of cell number” value:
1. COc1c(O)cc2oc(-c3ccc(O)cc3)cc(=O)c2c1O [Hispidulin]  145%
2. O=C(Oc1ccc([N+](=O)[O-])cc1)N1CCC(C(O)(c2ccc3c(c2)OCO3)c2ccc3c(c2)OCO3)CC1 [JZL184]  136%
3. CCN(CC)C(=S)SSC(=S)N(CC)CC [Disulfiram]  113%
4. Cc1ccc([C@@H]2O[C@H](CO)[C@@H](O)[C@H](O)[C@H]2O)cc1Cc1ccc(-c2ccc(F)cc2)s1 [Canagliflozin]  108%
5. Nc1nc(F)nc2c1ncn2[C@@H]1O[C@H](CO)[C@@H](O)[C@@H]1O [Fludarabine]  103%
6. Cn1c2cc([S+](C)[O-])sc2c2cnn(Cc3cccc(N)c3)c(=O)c21 (centres undefined) [TEPP_46]  92.3%
7. OC[C@H]1O[C@@H](c2ccc(Cl)c(Cc3ccc(O[C@H]4CCOC4)cc3)c2)[C@H](O)[C@@H](O)[C@@H]1O [Empagliflozin]  86.7%
8. CCCc1cc(-c2nc(-c3ccc(C)cc3)cs2)ccn1 [Fatostatin_A]  76.5%
9. CCc1ccc(CCOc2ccc(CC3SC(=O)NC3=O)cc2)nc1 (centres undefined) [Pioglitazone]  69%
10. Cc1ccc(-c2cc(C(F)(F)F)nn2-c2ccc(S(N)(=O)=O)cc2)cc1 [Celecoxib]  68.1%
11. Nc1cccc(S(=O)(=O)N2CCCN(S(=O)(=O)c3ccc4c(c3)OCCO4)CC2)c1 [DASA-58]  68%
12. NOCC[C@H](N)C(=O)O [L_Canaline]  68%
13. O=c1cc(-c2ccc(O)cc2)oc2cc(O)cc(O)c12 [Apigenin]  58%
14. CC(C)=CCC1=C(O)C(=O)c2ccccc2C1=O [Lapachol]  57.7%
15. C=CCNC1=C2C[C@@H](C)C[C@H](OC)[C@H](O)[C@@H](C)/C=C(\C)[C@H](OC(N)=O)[C@@H](OC)/C=C\C=C(/C)C(=O)NC(=CC1=O)C2=O [17_AAG]  54.1%
16. Cc1ccc(-c2c(-c3nn(C)c4ncnc(N5CC[C@H](N6CCCCC6)C5)c34)cnn2C)cc1  45.6%
17. O=C(NNc1ccccc1)c1ccncc1 [PluriSln_1]  41.4%
18. Cc1cnc(Nc2ccc(OCCN3CCCC3)cc2)nc1Nc1cccc(S(=O)(=O)NC(C)(C)C)c1 [Fedratinib]  40.7%
19. CC[C@@H]1/C=C/C=C/C[C@H](C)[C@H](O)[C@](C)(O)C(=O)[C@H](C)[C@@H](O)[C@H](C)C(=O)[C@H](C)[C@@H](O)[C@H](C)/C=C/C(=O)O[C@H]2[C@@H](C)[C@@H](CC1)O[C@@]1(CC[C@@H](C)[C@@H](C[C@H](C)O)O1)[C@@H]2C [Oligomycin_A]  40.6%
20. COc1cc(/C=C/C(=O)N2CCC=CC2=O)cc(OC)c1OC [Piperlongumine]  36.8%
21. CC1=CC(=O)c2c(O)cccc2C1=O [Plumbagin]  34.3%
22. CC1(C)CCC(c2ccc(Cl)cc2)=C(CN2CCN(c3ccc(C(=O)NS(=O)(=O)c4ccc(N[C@H](CCN5CCOCC5)CSc5ccccc5)c(S(=O)(=O)C(F)(F)F)c4)cc3)CC2)C1 [ABT_263]  33.6%
23. CN(N=O)C(=O)N[C@@H](C=O)[C@@H](O)[C@H](O)[C@H](O)CO [Streptozocin]  33.4%
24. NCCOCCOCCNC(=O)Cc1ccc(Nc2nc(NCc3ccc(F)cc3)nc(NCC3CCCCC3)n2)cc1 [AP-III-a4]  33.4%
25. COc1cc(/C=C/C(=O)CC(=O)/C=C/c2ccc(O)c(OC)c2)ccc1O [Curcumin]  32%
26. Cc1cccc(CN2CCN(C(c3ccccc3)c3ccc(Cl)cc3)CC2)c1 (centres undefined) [Meclizine]  31.4%
27. Cc1cc(=O)oc2c(C=O)c(O)ccc12 [4mu8C]  23.6%
28. CC1=CC(=O)c2ccccc2C1=O [Menadione]  23.5%
29. c1ccc2c(c1)[I+]c1ccccc1-2 [Diphenyleneiodonium_chloride]  22.9%
30. COc1cc2c(cc1O)CC[C@@H]1[C@@H]2CC[C@]2(C)[C@@H](O)CC[C@@H]12 [2_Methoxyestradiol]  22.8%
31. O=C(CCCCCCCn1cc(-c2cccnc2)nn1)Nc1ccccc1-c1ccccc1 [GPP_78]  20.3%
32. O=[N+]([O-])c1ccc(O)c([N+](=O)[O-])c1 [2_4_Dinitrophenol]  16.9%
33. CCOC(=O)[C@@H](N)CCC(=O)N[C@@H](CSCc1ccccc1)C(=O)N[C@@H](C(=O)OCC)c1ccccc1 [Telintra]  16.7%
34. COc1cc(O)c(CC=C(C)C)c(O)c1C(=O)/C=C/c1ccc(O)cc1 [Xanthohumol]  15.1%
35. CC1(C)C(N(O)C(=O)Nc2ccc(Cl)cc2)N(c2ccc(Cl)cc2)C(=O)N1CC(=O)NN=CC=Cc1ccc([N+](=O)[O-])o1 (centres undefined) [Eeyarestatin_I]  11.4%
36. CC1=C(/C=C/C(C)=C/C=C/C(C)=C/C(=O)O)C(C)(C)CCC1 [Tretinoin]  10%
37. Clc1ccc(C(c2ccccc2Cl)C(Cl)Cl)cc1 (centres undefined) [Mitotane]  9.97%
38. Nc1ccn([C@H]2CC[C@@H](CO)O2)c(=O)n1 [Zalcitabine]  9.86%
39. COc1ccc(C(CN(C)C)C2(O)CCCCC2)cc1 (centres undefined) [Venlafaxine]  6.28%
40. CCCCN1C[C@H](O)[C@@H](O)[C@H](O)[C@H]1CO [Miglustat]  5.72%
41. OC[C@H]1NC[C@H](O)[C@@H](O)[C@@H]1O [1_Deoxynojirimycin]  5.66%
42. Oc1cc(Cl)ccc1Oc1ccc(Cl)cc1Cl [Triclosan]  5.01%
43. O=C1CSC(c2ccccc2Cl)c2cc(Cl)ccc2N1 (centres undefined)  3.61%
44. Oc1ccc(Nc2nc(-c3ccc(Cl)cc3)cs2)cc1 [SKI_II]  0.0721%
45. CCC(C)SSc1ncc[nH]1 (centres undefined) [PX_12]  -1.42%
46. CCCCCCCCc1ccc(CCC(N)(CO)CO)cc1 [Fingolimod]  -1.64%
47. Cc1onc(C(=O)N2CCN(C(c3ccc(Cl)cc3)c3ccc(Cl)cc3)CC2)c1[N+](=O)[O-] [ML-210]  -2.73%
48. Nc1ccn([C@@H]2O[C@H](CO)[C@@H](O)C2(F)F)c(=O)n1 [Gemcitabine]  -5.76%
49. CCCCC/C=C/C(=O)CCc1ccc(O)c(OC)c1 [Shogaol]  -6.33%
50. C/C(O)=C(\C#N)C(=O)Nc1ccc(C(F)(F)F)cc1 [Teriflunomide]  -6.67%
51. CC(=O)NC(CSC(=S)Nc1ccc(NC(=S)SCC(NC(C)=O)C(=O)O)cc1)C(=O)O (centres undefined) [2-AAPA hydrate]  -9.91%
52. O=C(N[C@H](CO)[C@H](O)c1ccc([N+](=O)[O-])cc1)C(Cl)Cl [Chloramphenicol]  -10.7%
53. N=C(N)NC(=N)NCCc1ccccc1 [Phenformin]  -11.3%
54. Nc1nc(Cl)nc2c1ncn2[C@H]1C[C@H](O)[C@@H](CO)O1 [Cladribine]  -12.9%
55. CCc1c(-c2ccccc2)c(-c2ccccc2)nn1-c1ccccc1-c1cccc(OCC(=O)O)c1  -14.6%
56. CN(C/C=C/C#CC(C)(C)C)Cc1cccc2ccccc12 [Terbinafine_HCl]  -15.4%
57. CC(c1cc2ccccc2s1)N(O)C(N)=O (centres undefined) [Zileuton]  -16.9%
58. O=c1oc2ccccc2c(O)c1Cc1c(O)c2ccccc2oc1=O [Dicoumarol]  -17.7%
59. O=c1c2ccccc2[se]n1-c1ccccc1 [Ebselen]  -18.8%
60. C[N+](C)(C)CCO.C[N+](C)(C)CCO.[SH-].[SH-].[S]=[Mo]=[S] [ATN-224]  -20.1%
61. CCCCNc1cc(C(=O)O)cc(S(N)(=O)=O)c1Oc1ccccc1 [Bumetanide]  -20.9%
62. CC1=C(CC(=O)O)c2cc(F)ccc2/C1=C\c1ccc([S+](C)[O-])cc1 (centres undefined) [Sulindac]  -22.1%
63. Oc1ncnc2[nH]ncc12 [Allopurinol]  -22.3%
64. O=C(Nc1cccc(C(F)(F)F)c1)Nc1cc(S(=O)(=O)NC2CC2)ccc1-c1ccsc1 [AGI_6780]  -23.4%
65. NC(=O)c1ncn([C@@H]2O[C@H](CO)[C@@H](O)[C@H]2O)c1O [Mizoribine]  -26.6%
66. S=c1nc[nH]c2nc[nH]c12 [6_Mercaptopurine]  -28.9%
67. O[C@H]1[C@H](O)[C@@H](O)CN2CC[C@H](O)[C@H]12 [Castanospermine]  -30.6%
68. O=C(O)CC[N+](=O)[O-] [3_Nitropropionic_acid]  -31.7%
69. O[C@H]1[C@H]2[C@H](O)CCCN2C[C@H]1O [Swainsonine]  -31.9%
70. CCc1nc(N)nc(N)c1-c1ccc(Cl)cc1 [Pyrimethamine]  -35.1%
71. CC[C@H](C)C(=O)O[C@H]1C[C@H](O)C=C2C=C[C@H](C)[C@H](CC[C@@H](O)C[C@@H](O)CC(=O)O)[C@H]21 [Pravastatin]  -35.3%
72. Oc1ccc(/C=C/c2cc(O)cc(O)c2)cc1 [Resveratrol]  -35.9%
73. CN(C)C(=N)NC(=N)N [Metformin]  -36.3%
74. [N-]=[N+]=[N-] [Sodium_Azide]  -38.1%

— the supplement of paper PMC10790783
